# Test results as given in US20190160054A1, “PHARMACEUTICAL COMBINATION OF NINTEDANIB, TRIFLURIDINE AND TIPIRACIL FOR TREATING COLORECTAL CANCER” (Boehringer Ingelheim International GmbH, priority 2016, published 2019).
# What was measured:
# [1] = tested on: metastatic colorectal cancer; test: phase I/II study of the combination of Compound A1 with Compound Mixture B1 (UMIN000017114); type: in vivo, patients
# Source text: The key eligibility criteria were patients with metastatic colorectal cancer refractory or intolerant to fluoropyrimidine, irinotecan, oxaliplatin, anti-angiogenesis inhibitor and anti-EGFR antibody (if wild-type RAS) and without prior regorafenib and Compound Mixture B1 treatment; at least one measurable lesion; and ECOG performance status of 0 or 1.
# Secondary endpoints included overall survival (OS), PFS, objective response rate, disease control rate, safety, and pharmacokinetic parameters.
# Key Inclusion Criteria: • 1) Written informed consent • 2) >=20 years old • 3) Histologically or cytologically proven adenocarcinoma of colon or rectum (except appendiceal cancer), and KRAS test were carried out. • 4) Prior chemotherapy was discontinued due to disease progression, or an adverse event. • 5) No prior treatment with Regorafenib • 6) ECOG Performance Status of 0 or 1 • 7) Adequate oral intake • 8) With measurable disease according to RECIST • 9) Adequate organ function within 14 days prior to enrollment. • a. Hemoglobin>=9.0 g/d • b. Absolute neutrophil count>=1,500/mm3 • c. Platelet count>=100,000/mm3 • d with no liver metastasis, AST/ALT<=ULNx1.5 and T-Bil<=UNL with liver metastasis, AST/ALT<=ULNx2.5 and T-Bil<=UNL • e Serum creatinine<=1.5 mg/dL • 10) Women of childbearing potential must have a negative pregnancy test within 7 days prior to enrollment. […]
# Calu-6 = test: in vivo anti-tumor efficacy, non-small-cell lung xenograft model Calu-6; details: Calu-6, 50 mg/kg/d
# GS-9L = test: in vivo anti-tumor efficacy, glioblastoma GS-9L syngeneic rat tumor model; details: 50 mg/kg/d
# FaDu = test: in vivo anti-tumor efficacy, head and neck xenograft model FaDu; details: 100 mg/kg/d
# NCI-H460 = test: in vivo anti-tumor efficacy, non-small-cell lung xenograft model NCI-H460; details: NCI-H460, 25 mg/kg/d
# HT-29 = test: in vivo anti-tumor efficacy, colorectal xenograft model HT-29
# PAC-120 = test: in vivo anti-tumor efficacy, hormone-dependent prostate xenograft model PAC-120; details: PAC-120, 100 mg/kg/d
# Caki-1 = test: in vivo anti-tumor efficacy, renal xenograft model Caki-1; details: Caki-1, 100 mg/kg/d
# Rip-Tag = test: in vivo anti-tumor efficacy, pancreas murine transgenic model Rip-Tag
# SKOV3 = test: in vivo anti-tumor efficacy, ovarian xenograft model SKOV3; details: SKOV3, 50 mg/kg/d
structure (smiles),measurement,setting,value
"COC(=O)c1ccc2c(c1)NC(=O)/C2=C(\Nc1ccc(N(C)C(=O)CN2CCN(C)CC2)cc1)c1ccccc1 [Compound A, 3-Z-[1-(4-(N-((4-methyl-piperazin-1-yl)-methylcarbonyl)-N-methyl-amino)-anilino)-1-phenyl-methylene]-6-methoxycarbonyl-2-indolinone]","Two dose reduction of nintedanib, Reason","[1]; All enrolled patients, N = 35","DILI (cycle 1, cycle 4)"
same,patients requiring at least one dose reduction of nintedanib,"[1]; all enrolled 35 patients, combination treatment",Five
same,Efficacy T/C,Calu-6,T/C 24% @ 50 mg/kg/d
same,Efficacy T/C,GS-9L,T/C 32% @ 50 mg/kg/d
same,Efficacy T/C,FaDu,T/C 11% @ 100 mg/kg/d
same,Efficacy T/C,NCI-H460,T/C 54% @ 25 mg/kg/d
same,Efficacy T/C,"HT-29; HT-29 colorectal model, 100 mg/kg/d, T/C = reduction of tumor size in % of the control",T/C 16% @ 100 mg/kg/d
same,Efficacy,HT-29; HT-29 large tumors,tumor volume reduction
same,Efficacy T/C,PAC-120,T/C 34% @ 100 mg/kg/d
same,Efficacy T/C,Caki-1,T/C 13% @ 100 mg/kg/d
same,Efficacy,Rip-Tag,interference with tumor
same,Efficacy T/C,SKOV3,T/C 19% @ 50 mg/kg/d
